Results reported in patent US7947279B2, “Peptide having hydrolase activity” (The Trustees of Columbia University in the City of New York, priority 2005, dated 2011).
“Also recorded” adds a separate entry of the source.

Tests used:
Uch-L3 = target: T1, Uch-L3 (Homo sapiens, UniProt P15374); experiment: Nedd8-AMC hydrolysis by Uch-L3; assay type: biochemical; conditions: 5 μM LDN, 20 nM Uch-L3, Nedd8-AMC 400 nM
T1 sequence (P15374 1-230): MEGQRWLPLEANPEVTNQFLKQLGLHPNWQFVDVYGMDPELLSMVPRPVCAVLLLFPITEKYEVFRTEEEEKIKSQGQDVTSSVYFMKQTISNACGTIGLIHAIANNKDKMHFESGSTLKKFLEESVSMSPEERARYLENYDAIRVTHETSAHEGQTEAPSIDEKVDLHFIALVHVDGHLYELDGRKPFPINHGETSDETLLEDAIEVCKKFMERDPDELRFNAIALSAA
Experimental: Measurement of Hydrolase Activity: The hydrolase assay was performed as previously described (Nishikawa et al., 2003) with slight modifications. Briefly, hippocampal tissue was treated with tissue protein extraction reagent (T-PER; Pierce) containing freshly added EDTA-free protease inhibitors. Homogenate was centrifuged at 10,000 rpm for 5 min. Protein concentration was measured in the supernatant using the BCA protein assay reagent. In some experiments hydrolysis was initiated by adding 10 μl of 20 nM Uch-L1 or Uch-L3 (Boston Biochem). The hydrolase assay was performed using fluorogenic ubiquitin-7-amino-4-methylcoumarin (ubiquitin-AMC) (Boston Biochem) as a substrate. The substrate was diluted in assay buffer (50 mM Tris-HCL, 0.5 mM EDTA, 5 mM dithiothreitol and 0.1 mg/ml ovalbumin, pH 7.6). […] The reaction was monitored using a fluorescence spectrophotometer (CytoFluor Series 4000, ABI Inc) at 25° C. The free AMC fluorophore was excited at 380 nm and measured at 460 nm. Hydrolase activity was expressed as relative fluorescence intensity/min (Dang et al., 1998). In some experiments, hydrolysis was also measured on the soluble and insoluble fractions (FIG. 28D). In a group of experiments hydrolysis was measured by mixing ubiquitin-AMC with 20 nM TAT fusion proteins (FIG. 27C). […]

Uch-L1 [1] = target: T2, Uch-L1 (Mus musculus, UniProt Q9R0P9); experiment: Hydrolase (ubiquitin-AMC) assay on hippocampal slices; assay type: cell-based
T2 construct: hippocampal tissue was treated with tissue protein extraction reagent; from tissue; host or cells: mouse hippocampal slices (C57/BL6 or APP/PS1 and WT littermates)
T2 sequence (Q9R0P9 1-220): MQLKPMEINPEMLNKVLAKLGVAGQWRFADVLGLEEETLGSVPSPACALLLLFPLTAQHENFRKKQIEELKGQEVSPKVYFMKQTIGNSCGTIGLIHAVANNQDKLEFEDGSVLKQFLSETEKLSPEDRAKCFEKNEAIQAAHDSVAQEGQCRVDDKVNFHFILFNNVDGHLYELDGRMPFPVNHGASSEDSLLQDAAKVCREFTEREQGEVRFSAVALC
Experimental: (§1) Slice preparation. Mice were decapitated and their hippocampi removed. […] Slices were permitted to recover from cutting for at least 90 min. before recordings. For experiments with lactacystin, slices were perfused with the drug or vehicle for 2 to 4 hrs in a small volume (10 ml) chamber.
(§2) Briefly, hippocampal tissue was treated with tissue protein extraction reagent (T-PER; Pierce) containing freshly added EDTA-free protease inhibitors. Homogenate was centrifuged at 10,000 rpm for 5 min. Protein concentration was measured in the supernatant using the BCA protein assay reagent. In some experiments hydrolysis was initiated by adding 10 μl of 20 nM Uch-L1 or Uch-L3 (Boston Biochem). The hydrolase assay was performed using fluorogenic ubiquitin-7-amino-4-methylcoumarin (ubiquitin-AMC) (Boston Biochem) as a substrate. The substrate was diluted in assay buffer (50 mM Tris-HCL, 0.5 mM EDTA, 5 mM dithiothreitol and 0.1 mg/ml ovalbumin, pH 7.6). Each reaction mixture containing 400 nM substrate and 100 μg enzyme sample was incubated for 5 min at room temperature. The reaction was monitored using a fluorescence spectrophotometer (CytoFluor Series 4000, ABI Inc) at 25° C. The free AMC fluorophore was excited at 380 nm and measured at 460 nm. […] In some experiments, hydrolysis was also measured on the soluble and insoluble fractions (FIG. 28D). In a group of experiments hydrolysis was measured by mixing ubiquitin-AMC with 20 nM TAT fusion proteins (FIG. 27C). In other experiments the substrate was Nedd8-AMC (Boston Biochem).

Uch-L1 [2] = target: T2, Uch-L1; experiment: Hydrolase (ubiquitin-AMC) assay on hippocampi of injected mice; assay type: in vivo
Experimental: (§3) Measurement of Hydrolase Activity: The hydrolase assay was performed as previously described (Nishikawa et al., 2003) with slight modifications. Briefly, hippocampal tissue was treated with tissue protein extraction reagent (T-PER; Pierce) containing freshly added EDTA-free protease inhibitors. Homogenate was centrifuged at 10,000 rpm for 5 min. Protein concentration was measured in the supernatant using the BCA protein assay reagent. In some experiments hydrolysis was initiated by adding 10 μl of 20 nM Uch-L1 or Uch-L3 (Boston Biochem). The hydrolase assay was performed using fluorogenic ubiquitin-7-amino-4-methylcoumarin (ubiquitin-AMC) (Boston Biochem) as a substrate. The substrate was diluted in assay buffer (50 mM Tris-HCL, 0.5 mM EDTA, 5 mM dithiothreitol and 0.1 mg/ml ovalbumin, pH 7.6). Each reaction mixture containing 400 nM substrate and 100 μg enzyme sample was incubated for 5 min at room temperature. The reaction was monitored using a fluorescence spectrophotometer (CytoFluor Series 4000, ABI Inc) at 25° C. The free AMC fluorophore was excited at 380 nm and measured at 460 nm. Hydrolase activity was expressed as relative fluorescence intensity/min (Dang et al., 1998). In some experiments, hydrolysis was also measured on the soluble and insoluble fractions (FIG. 28D). In a group of experiments hydrolysis was measured by mixing ubiquitin-AMC with 20 nM TAT fusion proteins (FIG. 27C). In other experiments the substrate was Nedd8-AMC (Boston Biochem). LDN-57444 was purchased from Calbiochem.

Uch-L1 [3] = experiment: Hydrolase (ubiquitin-AMC) assay on hippocampal slices; assay type: cell-based, mouse
Experimental: as §1, §2

Uch-L1 [4] = experiment: Hydrolase (ubiquitin-AMC) assay on hippocampi of injected mice; assay type: in vivo, mouse; conditions: 0.02-0.04 g/kg, i.p.
Experimental: as §3

PKA = PKA kinase activity in hippocampal slices; assay type: cell-based, mouse
phospho-CREB = experiment: Phospho-CREB immunofluorescence in hippocampal slices; assay type: cell-based, mouse
[5] = 0.4 mg/kg, sacrificed 4 hrs after injection

CC(=O)O/N=C1\C(=O)N(Cc2cc(Cl)ccc2Cl)c2ccc(Cl)cc21 [LDN-57444, reference compound]
Uch-L3 hydrolase activity (Nedd8-AMC hydrolysis) (Uch-L3): does not affect Uch-L3 hydrolase activity | Uch-L3 hydrolase activity (Nedd8-AMC hydrolysis) (Uch-L3; listed as LDN): no reduction in hydrolysis of Nedd8-AMC | reduction of enzymatic activity (Uch-L1 [1]; 1 μM LDN): 20% | reduction of enzymatic activity (Uch-L1 [1]; 2.7 μM LDN, 2-4 hour perfusion): ~40% | inhibition of enzymatic activity (Uch-L1 [1]; 5 μM LDN, 15 minute perfusion): 20% | reduction of activity (Uch-L1 [1]; 5 μM LDN, 2 hour exposure): 70% | Maximal inhibition of Uch activity (Uch-L1 [1]; 5 μM LDN, one hour (60 min)): 70% | Uch activity in APP/PS1 slices (Uch-L1 [1]; 5 μM for 2 hrs): further reduced Uch activity | Ubiquitin-C-Terminal hydrolase activity (Uch-L1 [1]; 5 μM for 4 hrs): decreased | Uch-L1 hydrolase activity (Uch-L1 [1]; LDN-57444 perfusion (5 μM, 4 hrs)): less than 30 % of vehicle-treated controls | enzymatic activity (Uch-L1 [1]; WT and APP/PS1 slices, 5 μM LDN, 2 hours): ~70 % of values in vehicle treated WT slices | Ubiquitin-C-Terminal hydrolase activity in hippocampi (Uch-L1 [2]; [5]): decreased | Uch-L1 activity (Uch-L1 [2]; [5]): 65 % of vehicle injected controls | recovery of hydrolase activity (Uch-L1 [2]; single i.p. injection 0.4 mg/kg): ≤ 8 h | maximal inhibition of hydrolase activity (Uch-L1 [2]; single i.p. injection 0.4 mg/kg, 30 minutes post-injection): ~40 % of control

B1: TAT-HA-Uch-L1: fusion protein: 11-amino acid transduction domain of HIV-transactivator protein (TAT) fused with an HA tag and human Uch-L1 (protein)
chain: MQLKPMEINPEMLNKVLSRLGVAGQWRFVDVLGLEEESLGSVPAPACALLLLFPLTAQHENFRKKQIEELKGQEVSPKVYFMKQTIGNSCGTIGLIHAVANNQDKLGFEDGSVLKQFLSETEKMSPEDRAKCFEKNEAIQAAHDAVAQEGQCRVDDKVNFHFILFNNVDGHLYELDGRMPFPVNHGASSEDTLLKDAAKVCREFTEREQGEVRFSAVALCKAA
modifications: left off: small tags and cut ends
Uch activity (Uch-L1 [3]; 20 nM fusion protein 1 hr pre-incubation, 200 nM Aβ 20 min): normal monoubiquitin levels and Uch activity are maintained; also recorded: re-established normal ubiquitin-C-terminal hydrolase activity; also recorded: re-established normal Uch activity | ubiquitin-c-terminal hydrolase enzymatic activity (Uch-L1 [3]; 20 nM fusion protein 1 hr, then 200 nM Aβ plus fusion protein): 98.40±5.76 % of TAT-HA treated WT slices | enzymatic (Uch) activity (Uch-L1 [3]; fusion protein alone): slight increase | enzymatic activity (Uch-L1 [3]; fusion protein alone for 1 hr): 148.63±12.01 % of TAT-HA treated slices | Uch activity (Uch-L1 [3]; slices from 4 month APP/PS1 mice, 20 nM for 1 hr): Uch activity is restored | total Uch activity in APP/PS1 mice (Uch-L1 [4]): returned to control levels; also recorded: re-established normal total Uch activity | total Uch activity in WT mice (Uch-L1 [4]): increased above control level; also recorded: increased total Uch activity | PKA activity (PKA; 20 nM TAT-HA-Uch-L1 1 hr, then 200 nM Aβ plus TAT-HA-Uch-L1 20 min): 89.21±3.21% | PKA activity in Aβ-treated slices (PKA; fusion protein 20 nM 1 hr pre-incubation, 200 nM Aβ 20 min): blocked the reduction; also recorded: increased levels of kinase activity | tetanus-induced increase in phospho-CREB in Aβ-treated slices (phospho-CREB; fusion protein 20 nM 1 hr, then 200 nM Aβ plus fusion protein 20 min): significant protection against Aβ42 effects on phospho-CREB; also recorded: reversed; also recorded: re-established the tetanus-induced increase in CREB phosphorylation; also recorded: re-established the tetanus-induced increase in phospho-CREB | tetanus-induced increase in phospho-CREB (words) (phospho-CREB; fusion protein alone): did not affect the increase; also recorded: had no effect | phospho-CREB immunofluorescence without theta-burst (phospho-CREB; no tetanus): did not modify immunofluorescence; also recorded: neither Aβ42 alone nor TAT-HA-Uch-L1 alone nor TAT-HA-Uch-L1 paired with Aβ42 induced changes
